Laboratory results published in PMC12491715 (Acta Pharmaceutica Sinica. B, 2025).

Key:
[1] = Shake-flask partition coefficient / logD; type: physicochemical; settings: n-octanol/PBS buffer
Protocol: Shake-flask partition coefficient measurement was done according to OECD guideline 107 (27. 7. 1995) and EPA OPPTS 830.7550 guideline (1996). […] […] Each solvent ratio was done in duplicates. The Eppendorf tubes were thoroughly shaken to ensure partition and centrifuged (5000 × g, 10 min) to separate the phases. Water phase (carefully sampled using needle and syringe) was transferred to HPLC vials directly, whereas n-octanol phases were diluted with MeCN (10–50×) prior to analysis. Additional dilutions were carried out, if needed.

[2] = Hydrolysis of 8 in human plasma; type: in vitro ADME
Excerpt: See Supporting Information Tables S4.

[3] = tested on: ICR mice icv-injected with Aβ1–42; test: Morris water maze, mice model with icv-injection of Aβ1–42; type: in vivo; settings: 1–5 mg/kg, ip, once a day; comparable to rivastigmine 4 (1 mg/kg, ip)
Protocol: Mice model with icv-injection of Aβ1–42 The experiments were performed using ICR male mice (8–10 weeks old, weight 18–20 g), which were purchased from Shanghai Bikai Animal Breeding Factory (Shanghai, China). Animals were housed in cages (6 mice per cage) at a constant temperature of 25±2 °C, humidity of 55%±10% and a light/dark (12:12) cycle. The mice had unlimited access to food and water prior to the experiment. Specified conditions for the maintenance of mice were ensured throughout the experiments, including tree bedding (Yizheng Anlimao Biotechnology Co., Ltd., China) and lab feed (Zimao, China). For behavioural tests, mice were selected randomly, each group consisted of 6 mice. The experiments were performed between 9 am and 3 pm.
According to the literature procedure, recombinant human hexafluoroisopropanol-pretreated Aβ1–42 from Merck Millipore (Darmstadt, Germany) was dissolved in 1% DMSO, diluted with saline to the final concentration of 2 mg/mL, and incubated for 72 h to form oligomers. […]
Behavioural assays The Morris water maze was placed in a lighted room at 25 °C, and it was divided into four equal quadrants. […] The time spent searching for the missing platform was recorded by Xeye Aba image processing system (Beijing Zhongshi Dichuang Technology Development Co., Ltd.) and analysed by GraphPad Prism 5.

[4] = MTS assay, metabolic activity; type: cell-based; settings: human, SH-SY5Y neuroblastoma cells, read-out: cytotoxic EC50
Protocol: Cell culture and treatments The human neuroblastoma SH-SY5Y cell line was purchased from American Type Culture Collection (Manassas, VA, USA). Cells were cultured in Advanced Dulbecco’s modified Eagle’s medium (Gibco, Thermo Fisher Scientific, Waltham, MA, USA) supplemented with 10% fetal bovine serum (FBS, Gibco), 2 mmol/L L-glutamine, 50 U/mL penicillin and 50 μg/mL streptomycin (Sigma, St. Louis, MO, USA) in a humidified atmosphere of 95% air and 5% CO2 at 37 °C, and grown to 80% confluence. Prior to cell treatment, complete medium was replaced with serum-reduced medium (i.e., with 2% FBS). Compounds were prepared as a stock solution of 50 mmol/L in DMSO.
MTS assay SH-SY5Y cells were seeded in 96-well plates (10^4/well) and assessed by MTS ([3-(4,5-dimethylthiazol-2-yl)-5-(3-carboxymethoxyphenyl)-2-(4-sulfophenyl)-2H-tetrazolium, inner salt) assay for their response to compounds. Cells were treated with increasing concentrations of compounds (0.1–10 μmol/L for 5, 1–100 μmol/L for 6–8) in a serum-reduced medium, and metabolic activity was assessed after 24 h (5) or 48 h (6–8) using the CellTiter 96® Aqueous One Solution Cell Proliferation Assay (Promega, Madison, WI, USA), in accordance with the manufacturer’s instructions. Absorbance was measured with an automatic microplate reader (Tecan Safire^2, Switzerland) at 492 nm. Results are presented as a percentage of the control (DMSO).

CCN(CC)C(=O)n1cnc(C2(CC)Cc3ccccc3C2)c1 [Compound 8, N,N-Diethyl-4-(2-ethylindan-2-yl)-1H-imidazole-1-carboxamide]
logD ([1]; pH 0.91): 0.3 ± 0.06
logD ([1]; pH 1.99): 1.18 ± 0.1
logD ([1]; pH 3.07): 2.17 ± 0.25
logD ([1]; pH 4.44): 3.05 ± 0.1
logD ([1]; pH 6.02): 3.15 ± 0.14
logD ([1]; pH 7.4): 3.33 ± 0.11
logD ([1]; pH 9.55): 3.52 ± 0.39
8 present after 24 h ([2]; control experiment, plasma pre-treated with BChE-selective covalent inhibitor isoOMPA): > 85%
half-life at 20 μg/L ([2]; human, plasma, 37 °C, nominal starting concentration 20 μg/L): 5 h
performance in Morris water maze [3]: outperformed saline-treated mice (model)
EC50 at 48 h [4]: > 100 µM
